This passage reports TGI and GI50 results from PubChem BioAssay (NCI).

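Growth conditions: 96-well plates. Treatment: test compound, 48 hours, 5 concentrations. Analysis: linear interpolation between bracketing concentrations; unreached endpoints set to highest concentration. GI50 is the concentration that inhibits growth by half. TGI is the concentration that stops growth completely.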 A value given as a limit tells only on which side of the number the result lay.

Some test systems named below: 786-0 renal; ACHN renal; IGROV1 ovarian; NCI-H23 lung; OVCAR-5 ovarian; RPMI-8226 leukemia; SF-268 CNS; SK-OV-3 ovarian; SNB-19 CNS; UO-31 renal.
Experiment in all cases: DTP human tumour cell line panel, 48 h

For orientation: TGI means the concentration giving total growth inhibition. Low readings indicate greater sensitivity of the cells, high ones lower sensitivity of the cells. Broadly, the GI50 is the concentration that inhibits growth by half.

Consider `CCCc1nc(NC#N)nc(C(=O)NC23CC4CC(CC(C4)C2)C3)c1C`, for which the TGI with 786-0 renal, in the test on ACHN renal, in the test on IGROV1 ovarian, in the test with NCI-H23 lung, with OVCAR-5 ovarian and in the test with RPMI-8226 leukemia was > 100 µM each time. Also, the TGI in the test with SF-268 CNS, with SK-OV-3 ovarian, with SNB-19 CNS and with UO-31 renal was > 100 µM throughout.

In the case of `CS(=O)(=O)c1ccc(Oc2cc(F)cc(C#N)c2)c2c1[C@H](O)C(F)(F)C2`, the GI50 in the test on 786-0 renal, with ACHN renal, in the test with IGROV1 ovarian, in the test with NCI-H23 lung, with OVCAR-5 ovarian and with RPMI-8226 leukemia was > 100 µM in each case. Besides, the GI50 in the test on SF-268 CNS, in the test with SK-OV-3 ovarian, in the test on SNB-19 CNS and in the test on UO-31 renal was > 100 µM in each case. In addition, the TGI in the test on 786-0 renal, with ACHN renal, in the test on IGROV1 ovarian, with NCI-H23 lung, in the test on OVCAR-5 ovarian and in the test with RPMI-8226 leukemia was > 100 µM each time. In addition, the TGI in the test with SF-268 CNS, in the test with SK-OV-3 ovarian, in the test with SNB-19 CNS and in the test with UO-31 renal was > 100 µM throughout.

Consider `CCOC(=O)N[C@@H]1C2CC(=O)C(O2)[C@@H]1OC` (stereo not given in full), for which the TGI in the test with 786-0 renal, in the test with ACHN renal, with IGROV1 ovarian, with NCI-H23 lung, with OVCAR-5 ovarian and with RPMI-8226 leukemia was > 100 µM throughout. Also, the TGI with SF-268 CNS, in the test with SK-OV-3 ovarian, with SNB-19 CNS and in the test with UO-31 renal was > 100 µM each time.

For `COc1ccc(C(=O)C(C(=O)C(=O)NC2C3CC4CC(C3)CC2C4)c2ccc(OC)cc2)cc1` (stereo not given), the TGI in the test with 786-0 renal, with ACHN renal, with IGROV1 ovarian, in the test on NCI-H23 lung, in the test with OVCAR-5 ovarian and in the test on RPMI-8226 leukemia was > 100 µM in each case. The TGI in the test on SF-268 CNS, in the test with SK-OV-3 ovarian, in the test on SNB-19 CNS and in the test with UO-31 renal was > 100 µM in each case.

Turning to `O=C(Nc1ccc(OCc2nnc(-c3ccccc3)o2)c(F)c1)Nc1ccc(Cl)c(C(F)(F)F)c1`, the GI50 in the test with 786-0 renal was 2.11 µM; in the test on ACHN renal, 1.84 µM; in the test with IGROV1 ovarian, 2.12 µM; in the test on NCI-H23 lung, 2.37 µM; in the test with OVCAR-5 ovarian, 7.56 µM; in the test on RPMI-8226 leukemia, 1.11 µM. Also, the GI50 with SF-268 CNS was 3.52 µM; with SK-OV-3 ovarian it was 3.17 µM; in the test on SNB-19 CNS, 2.35 µM; in the test on UO-31 renal, 1.49 µM. In addition, the TGI with 786-0 renal is 4.21 µM; with ACHN renal, 4.42 µM; in the test on IGROV1 ovarian it was 5.23 µM; in the test with NCI-H23 lung, 8.09 µM; with OVCAR-5 ovarian it was > 100 µM; in the test with RPMI-8226 leukemia, 3.57 µM. For the same compound, the TGI is 19.2 µM in the test with SF-268 CNS, 9.46 µM in the test on SK-OV-3 ovarian, 16.7 µM in the test with SNB-19 CNS and 2.93 µM in the test with UO-31 renal.

For `C=CC[C@@H]1/C=C(\C)C[C@H](C)C[C@H](OC)[C@H]2O[C@@](O)(C(=O)C(=O)N3CCCC[C@H]3C(=O)O[C@H](/C(C)=C/C3CC[C@@H](O)[C@H](OC)C3)[C@H](C)[C@@H](O)CC1=O)[C@H](C)C[C@@H]2OC` (stereo not given in full), the GI50 in the test with 786-0 renal is 17.3 µM; with ACHN renal it was 15.4 µM; in the test on IGROV1 ovarian it was 17.3 µM; in the test with NCI-H23 lung it was 16.3 µM; in the test with OVCAR-5 ovarian, 17.2 µM; in the test on RPMI-8226 leukemia it was 8.59 µM. For the same compound, the GI50 in the test with SF-268 CNS was 13.8 µM; with SK-OV-3 ovarian, 16.7 µM; in the test with SNB-19 CNS it was 15.6 µM; in the test with UO-31 renal, 12.8 µM. In addition, the TGI in the test with 786-0 renal turned out to be 35.1 µM; in the test with ACHN renal, 29.5 µM; in the test with IGROV1 ovarian, 41 µM; in the test with NCI-H23 lung, 32.7 µM; in the test with OVCAR-5 ovarian, 37.2 µM; in the test with RPMI-8226 leukemia it was 32.2 µM. Besides, the concentration for total growth inhibition (TGI) with SF-268 CNS was found to be 27.3 µM; with SK-OV-3 ovarian it was 31.2 µM; in the test with SNB-19 CNS, 30.4 µM; in the test with UO-31 renal it was 26.4 µM.

In the case of `O=C(CN1C(=O)S/C(=C\C(Cl)=C\c2ccccc2)C1=O)NCCc1ccc(O)cc1`, the GI50 in the test with 786-0 renal is 1.84 µM; in the test on ACHN renal it was 2.55 µM; in the test on IGROV1 ovarian it was 1.76 µM; in the test with NCI-H23 lung, 2.29 µM; in the test on OVCAR-5 ovarian, 2.31 µM; in the test with RPMI-8226 leukemia, 1.74 µM. The GI50 in the test on SF-268 CNS was 2.28 µM; with SK-OV-3 ovarian, 3.48 µM; with SNB-19 CNS, 2.54 µM; with UO-31 renal, 1.64 µM. In addition, the TGI in the test on 786-0 renal amounted to 3.54 µM; with ACHN renal, 8.06 µM; in the test with IGROV1 ovarian it was 3.9 µM; with NCI-H23 lung it was 6.15 µM; in the test on OVCAR-5 ovarian it was 5.66 µM; in the test with RPMI-8226 leukemia it was 6.96 µM. For the same compound, the TGI in the test with SF-268 CNS was 6.63 µM; in the test with SK-OV-3 ovarian, > 100 µM; with SNB-19 CNS, 9.46 µM; in the test on UO-31 renal, 3.31 µM.

Regarding `COc1cccc(Cn2c(-c3nonc3NC(C)=O)nc3ccccc32)c1`, the GI50 with 786-0 renal is 10.4 µM; in the test with ACHN renal, 8.41 µM; with IGROV1 ovarian, 7.98 µM; with NCI-H23 lung, 6.42 µM; in the test with OVCAR-5 ovarian it was 4.04 µM; in the test with RPMI-8226 leukemia, 5.34 µM. In addition, the GI50 was 7.82 µM in the test with SF-268 CNS, 3.07 µM with SK-OV-3 ovarian, 7.15 µM in the test with SNB-19 CNS and 3.72 µM with UO-31 renal. The TGI in the test with 786-0 renal, in the test with ACHN renal, with IGROV1 ovarian, in the test on NCI-H23 lung, in the test with OVCAR-5 ovarian and in the test with RPMI-8226 leukemia was > 100 µM in each case. Moreover, the TGI in the test with SF-268 CNS, with SK-OV-3 ovarian, in the test on SNB-19 CNS and in the test with UO-31 renal was > 100 µM in each case.

On to `Brc1ccccc1C=NC12CC3CC(CC(C3)C1)C2`, for which the TGI in the test on 786-0 renal, in the test with ACHN renal, with IGROV1 ovarian, in the test on NCI-H23 lung, with OVCAR-5 ovarian and in the test with RPMI-8226 leukemia was > 100 µM throughout. The TGI with SF-268 CNS, in the test with SK-OV-3 ovarian, in the test on SNB-19 CNS and with UO-31 renal was > 100 µM each time.
